Here are results for 3 compounds from US20180243309A1, “TOPICAL ANTIVIRAL COMPOSITIONS” (Topical Remedy, LLC, priority 2015, published 2018).

Experiment [1] deals with HSV-1, strain E-377. The experiment in a line: Orofacial HSV-1 infection in SKH-1 mice: mortality and facial lesion scores. Conditions: for Mortality Number: dead/total, topical 3 times daily Days 4-6, 20 min intervals, acyclovir 3 times daily for 5 days from 24 h after inoculation; for #With Lesions/#Inoculated: facial lesions, days 1-21; for Mean Peak Lesion Score ± SD: lesion score scale 0.0-5.0. Type of experiment: in vivo. As to the method:
In this model, mice are anesthetized with a ketamine/xylazine mixture and implanted with an electronic microchip for individual identification. […] This procedure is performed carefully to prevent bleeding. […] Following this procedure, animals are returned to their cages and observed until recovery.
(§1) To determine the effect of treatment on cutaneous viral replication, severity of lesions is scored from days 1-21 and swabs of the snout area are taken on days 2-8 and 10. […] All drug studies are placebo or vehicle controlled.
(§2) During the post-challenge phase, animals were examined daily and lesions scored for severity and samples taken for quantitation of orofacial HSV replication.
Female SKH-1 mice (Charles River Laboratories, Raleigh, N.C.) were assigned randomly to groups. Each efficacy group contained 10 animals. Animals were anesthetized with ketamine-xylazine, implanted with an identification microchip, and has the orofacial area abraded using a Dremmel tool with an engraving bit.
To determine the effect of treatment on the development and severity of lesions, severity of lesions were graded on a 0.0 to 5.0 scale in 0.5 increments, according to the scale below. The presence or absence of lesions and severity of lesions was recorded daily beginning day 1 through day 21 post-challenge. Animals were observed daily for signs of systemic viral disease.
Mortality rates were analyzed by Fisher's exact test and mean day of death using Mann-Whitney U rank sum test. Infection rates, peak lesion scores, peak virus titers, areas under the curve for virus titer-day and lesion score-day between control and treated animals will be compared using the Mann-Whitney U Rank Sum Test.

Experiment [2] has as its system HSV-1, strain E-377. Briefly: Orofacial HSV-1 infection in SKH-1 mice: virus titers of orofacial swabs (CPE microtiter assay on rabbit kidney cells). Conditions: for mean virus titer ± standard deviation, Day 4 am: Day 4, am (before treatments); for mean virus titer ± standard deviation, Day 4 pm: Day 4, pm (after treatments); for mean virus titer ± standard deviation, Day 5 am: Day 5, am (before treatments); for mean virus titer ± standard deviation, Day 5 pm: Day 5, pm (after treatments); for mean virus titer ± standard deviation, Day 6 am: Day 6, am (before treatments); for mean virus titer ± standard deviation, Day 6 pm: Day 6, pm (after treatments); for Mean Peak Titer Score ± SD: orofacial swabs; for #Virus Positive/#Inoculated / Titer-Day AUC: orofacial swabs days 2-8 and 10. Type of experiment: in vivo.
Excerpt: as §1, §2
To determine the effect of treatment on HSV-1 replication on the orofacial area, swabs of the area were obtained on days 2 through 8 and 10 post-viral challenge. On treatment days, swabs were obtained at least 3 hours following the final treatment. Swabs were placed in tubes containing 2.0 ml of media, vortexed, and frozen at −70° C. until titrated for HSV. […] Wells were seeded with 10^4 cells per well and inoculated in triplicate 24 h later. The plates were read under a microscope five days after viral inoculation and the presence/absence of viral CPE in each well noted. A TCID50 value was calculated using Reed-Muench Methodology.
To determine the effect of treatment on HSV-1 replication from the lesions on the orofacial area, swabs of the area were obtained at least 3 hours after treatment on days when mice are treated. […] Samples were taken before treatments and after treatments.
Mortality rates were analyzed by Fisher's exact test and mean day of death using Mann-Whitney U rank sum test. Infection rates, peak lesion scores, peak virus titers, areas under the curve for virus titer-day and lesion score-day between control and treated animals will be compared using the Mann-Whitney U Rank Sum Test. A P-value of 0.05 or less will be considered significant.
In addition, the immediate post treatment effects on lesion derived virus titers was analyzed using the mixed linear model with a P-value of 0.05 or less considered as significant. This difference in virus recovered from animals before and after treatments for all treatment days was used to calculate significance.

Setting [3] is: same regimens as Mortality Number.

Regarding `Nc1nc2c(ncn2COCCO)c(=O)[nH]1` [5% Acyclovir, Acyclovir, reference compound], in the experiment on HSV-1, strain E-377 [1], the “Mortality Number” value is recorded as 0/10, the “#With Lesions/#Inoculated” value is reported as 0/10 and the “Mean Peak Lesion Score ± SD” value stood at 0.0 ± 0.0. In addition, the “Mortality Percent” value with HSV-1, strain E-377 [1] (setting [3]) is given as 0%. In the experiment with HSV-1, strain E-377 [2], the “mean virus titer ± standard deviation, Day 4 am” value is recorded as 0.2 ± 0.8^ TCID50; the “mean virus titer ± standard deviation, Day 4 pm” value is on record as 0.0 ± 0.0 TCID50; the “mean virus titer ± standard deviation, Day 5 am” value is given as 0.0 ± 0.0 TCID50; the “mean virus titer ± standard deviation, Day 5 pm” value was 0.0 ± 0.0 TCID50. Also, in the experiment on HSV-1, strain E-377 [2], the “mean virus titer ± standard deviation, Day 6 am” value turned out to be 0.0 ± 0.0 TCID50; the “mean virus titer ± standard deviation, Day 6 pm” value amounted to 0.0 ± 0.0 TCID50; the “Mean Peak Titer Score ± SD” value was 0.6 ± 0.1; the “#Virus Positive/#Inoculated” value is recorded as 3/10.
For Ethyl alcohol [Compound 1], in the experiment on HSV-1, strain E-377 [1], the “Mortality Number” value is recorded as 8/10, the “#With Lesions/#Inoculated” value is reported as 10/10 and the “Mean Peak Lesion Score ± SD” value is listed as 3.0 ± 0.0↑. Also, in the experiment with HSV-1, strain E-377 [1] (lesion score scale 0.0-5.0, days 1-21), the “Lesion-Day AUC” value is on record as 41.1↑. Moreover, in the experiment with HSV-1, strain E-377 [1] (setting [3]), the “MDD (Mean Day of Death)” value is recorded as 7.9 and the “Mortality Percent” value came out at 80%. Besides, in the experiment with HSV-1, strain E-377 [2], the “mean virus titer ± standard deviation, Day 4 am” value is on record as 5.1 ± 1.0^ TCID50; the “mean virus titer ± standard deviation, Day 4 pm” value is 5.1 ± 1.5 TCID50; the “mean virus titer ± standard deviation, Day 5 am” value came to 5.7 ± 0.4 TCID50; the “mean virus titer ± standard deviation, Day 5 pm” value is 5.6 ± 0.6 TCID50. For the same compound, in the experiment with HSV-1, strain E-377 [2], the “mean virus titer ± standard deviation, Day 6 am” value is 4.9 ± 0.7 TCID50; the “mean virus titer ± standard deviation, Day 6 pm” value was found to be 4.0 ± 0.8 TCID50; the “Mean Peak Titer Score ± SD” value was 6.0 ± 0.2; the “#Virus Positive/#Inoculated” value is reported as 10/10. Moreover, the “Titer-Day AUC” value in the experiment with HSV-1, strain E-377 [2] is 32.2.
As to Glycolic acid [Compound 2], in the experiment on HSV-1, strain E-377 [2], the “mean virus titer ± standard deviation, Day 4 am” value was 4.2 ± 1.3^ TCID50; the “mean virus titer ± standard deviation, Day 4 pm” value turned out to be 4.2 ± 1.6 TCID50; the “mean virus titer ± standard deviation, Day 5 am” value turned out to be 5.5 ± 0.4 TCID50; the “mean virus titer ± standard deviation, Day 5 pm” value is 5.1 ± 0.6 TCID50. In the experiment with HSV-1, strain E-377 [2], the “mean virus titer ± standard deviation, Day 6 am” value worked out at 5.2 ± 0.6 TCID50; the “mean virus titer ± standard deviation, Day 6 pm” value came out at 4.4 ± 0.5 TCID50; the “Mean Peak Titer Score ± SD” value is 5.3 ± 0.5; the “#Virus Positive/#Inoculated” value was 10/10. Moreover, in the experiment with HSV-1, strain E-377 [2], the “Titer-Day AUC” value was found to be 33.3.
